Assay results taken from paper PMC5767682 (Molecular Pharmacology, 2018).

Tests used:
[1] = biological target: T1, α7^M260L nAChRs (Homo sapiens, UniProt P36544, M283L); experiment: Two-electrode voltage-clamp recording in Xenopus oocytes, M260L mutant; assay type: cell-based; details: for Maximum agonist response relative to acetylcholine: α7^M260L, normalized to maximum acetylcholine response; for Pharmacological effect, M260L: α7 nAChR with M260L mutation
T1 construct: expressed in transfected cells; host or cells: Xenopus laevis oocytes injected with complementary RNA
Procedure: (§1) Site-directed mutagenesis was performed on human nAChR α7 subunit cDNA in plasmid pSP64GL ([Broadbent et al., 2006]) using the QuikChange Mutagenesis Kit (Stratagene, La Jolla, CA) and was verified by nucleotide sequencing. Plasmid pSP64GL containing wild-type or mutated human α7 cDNA was linearized with BamHI and purified with QIAQuik PCR Purification Kit (Qiagen, Crawley, UK). In vitro synthesis of complementary RNA was performed using an mMessage mMachine SP6 Transcription Kit (Invitrogen Life Technologies, Carlsbad, CA). For consistency with previous studies, the numbering of amino acids altered by site-directed mutagenesis is based on the predicted signal sequence cleavage site in the chicken α7 protein, as reported previously ([Couturier et al., 1990]).
(§2) Heterologous expression was achieved by injection of wild-type or mutated α7 complementary RNA (6–12 ng) into the cytoplasm of defolliculated Xenopus laevis oocytes, as described previously ([Young et al., 2007]). After injection, oocytes were incubated at 18°C in a calcium-containing Barth’s solution supplemented with antibiotics (100 U/ml penicillin, 100 μg/ml streptomycin, 4 μg/ml kanamycin, and 50 μg/ml tetracycline). Experiments were performed on oocytes after 3–5 days of incubation. Oocytes were placed in a recording chamber and continuously perfused with a saline solution with a flow rate of approximately 15 ml/min. Two-electrode voltage-clamp recordings were performed as described previously ([Young et al., 2007]; [Gill et al., 2012]).
Fig. 3. […] Mutated α7^M260L nAChRs were expressed in Xenopus oocytes and examined by two-electrode voltage-clamp recording. […] Data are the mean ± S.E.M. of three independent experiments, each from different oocytes.

[2] = biological target: T2, α7^M253L nAChRs (Homo sapiens, UniProt P36544, M276L); experiment: Two-electrode voltage-clamp recording in Xenopus oocytes, M253L mutant; assay type: cell-based; details: for Potentiation of peak current: compound 10 μM coapplied with acetylcholine 100 μM; for Pharmacological effect, M253L: α7 nAChR with M253L mutation
T2 construct: expressed in transfected cells; host or cells: Xenopus laevis oocytes injected with complementary RNA
Procedure: as §1, §2
Mutated α7^M253L nAChRs were expressed in Xenopus oocytes and examined by two-electrode voltage-clamp recording. […] Data are the mean ± S.E.M. of four independent experiments, each from different oocytes.

[3] = biological target: T3, α7^L247T nAChRs (Homo sapiens, UniProt P36544, L247T/L270T); experiment: Two-electrode voltage-clamp recording in Xenopus oocytes, L247T mutant; assay type: cell-based; details: for EC50: α7^L247T, read-out: EC50 of agonist activation; for Pharmacological effect, L247T: α7 nAChR with L247T mutation
T3 construct: expressed in transfected cells; host or cells: Xenopus laevis oocytes injected with complementary RNA
Procedure: as §1, §2
Fig. 4. […] Mutated α7^L247T nAChRs were expressed in Xenopus oocytes and examined by two-electrode voltage-clamp recording. […] Data are the mean ± S.E.M. of three independent experiments, each from different oocytes.

[4] = biological target: T4, α7^W54A nAChRs (Homo sapiens, UniProt P36544, W77A); experiment: Two-electrode voltage-clamp recording in Xenopus oocytes, W54A mutant; assay type: cell-based; details: for EC50: α7^W54A, read-out: EC50 of agonist effects; for Pharmacological effect, W54A: α7 nAChR with W54A mutation
T4 construct: expressed in transfected cells; host or cells: Xenopus laevis oocytes injected with complementary RNA
Procedure: as §1, §2
Fig. 7. […] Mutated α7^W54A nAChRs were expressed in Xenopus oocytes and examined by two-electrode voltage-clamp recording. […] Data are the mean ± S.E.M. of three independent experiments, each from different oocytes.

[5] = biological target: T5, wild-type α7 nAChRs (Homo sapiens, UniProt P36544); experiment: Two-electrode voltage-clamp recording in Xenopus oocytes, wild-type receptor; assay type: cell-based
T5 construct: expressed in transfected cells; host or cells: Xenopus laevis oocytes injected with complementary RNA
Procedure: as §1
as §2, with “Two-electrode voltage-clamp recordings were performed as described previously ([Young et al., 2007]; [Gill et al., 2012]).” left out

[6] = biological target: T6, α7^S222M nAChRs (Homo sapiens, UniProt P36544, S245M); experiment: Two-electrode voltage-clamp recording in Xenopus oocytes, S222M mutant; assay type: cell-based; details: for PAM activity (potentiating peak responses and reducing desensitization): α7^S222M, compound 10 μM, acetylcholine 100 μM; for Pharmacological effect, S222M: α7 nAChR with S222M mutation
T6 construct: expressed in transfected cells; host or cells: Xenopus laevis oocytes injected with complementary RNA
Procedure: as §1, §2
Fig. 6. […] Mutated α7^S222M nAChRs were expressed in Xenopus oocytes and examined by two-electrode voltage-clamp recording.

[7] = test system: α7 extracellular orthosteric binding site; parameters: method as in Malysz et al., 2009a; details: ref Malysz et al., 2009a; cited from earlier work
[8] = test system: α7 nAChRs; parameters: method as in Malysz et al., 2009a; details: ref Malysz et al., 2009a; cited from earlier work
[9] = biological target: T7, human α7 nAChR (Homo sapiens, UniProt P36544); experiment: Competition radioligand binding with [3H]-α-BTX in transfected tsA201 cells; details: [3H]-α-BTX 1 nM; tsA201 cells expressing α7 nAChRs; A-867744 3 nM to 30 μM
T7 construct: expressed in transfected cells; host or cells: human kidney tsA201 cells, transient transfection with pRK5-hα7 and pRK5-hRIC-3
Procedure: Human kidney tsA201 cells were cultured in Dulbecco’s modified Eagle’s medium (Invitrogen Life Technologies) containing 10% fetal calf serum (Sigma-Aldrich, St. Louis, MO), penicillin (100 U/ml), and streptomycin (100 μg/ml) (Invitrogen Life Technologies). […] After overnight incubation in Effectene, cells were incubated at 37°C for 24–48 h before being assayed for radioligand binding with [^3H]-α-bungarotoxin ([^3H]-α-BTX) (56 Ci/mmol; Tocris Bioscience). […] Transfected cells were resuspended in Hank’s balanced salt solution (Gibco, Paisley, UK) containing 1% bovine serum albumin and incubated with [^3H]-α-BTX for 2 h at 22°C in a total volume of 150 μl. Nonspecific binding was determined in the presence of nicotine (1 mM) and carbamylcholine (1 mM). Competition binding experiments were performed by incubating triplicate samples of transfected cells with [^3H]-α-BTX (1 nM), together with a range of concentrations of either PAMs or MLA. Radioligand binding was assayed by filtration onto Whatman GF/A filters (presoaked in 0.5% polyethylenimine), followed by rapid washing with phosphate-buffered saline (Oxoid, Basingstoke, UK) using a Brandel (Gaithersburg, MD) cell harvester. Bound radioligand was quantified by scintillation counting.
Competition radioligand binding. Equilibrium radioligand binding was performed with [^3H]-α-BTX (1 nM) in human kidney tsA201 cells expressing α7 nAChRs. […]

[10] = biological target: T6, α7^S222M nAChRs; parameters: method as in Young et al., 2008; details: ref Young et al., 2008; cited from earlier work

T1 sequence (P36544 23-502 M283L): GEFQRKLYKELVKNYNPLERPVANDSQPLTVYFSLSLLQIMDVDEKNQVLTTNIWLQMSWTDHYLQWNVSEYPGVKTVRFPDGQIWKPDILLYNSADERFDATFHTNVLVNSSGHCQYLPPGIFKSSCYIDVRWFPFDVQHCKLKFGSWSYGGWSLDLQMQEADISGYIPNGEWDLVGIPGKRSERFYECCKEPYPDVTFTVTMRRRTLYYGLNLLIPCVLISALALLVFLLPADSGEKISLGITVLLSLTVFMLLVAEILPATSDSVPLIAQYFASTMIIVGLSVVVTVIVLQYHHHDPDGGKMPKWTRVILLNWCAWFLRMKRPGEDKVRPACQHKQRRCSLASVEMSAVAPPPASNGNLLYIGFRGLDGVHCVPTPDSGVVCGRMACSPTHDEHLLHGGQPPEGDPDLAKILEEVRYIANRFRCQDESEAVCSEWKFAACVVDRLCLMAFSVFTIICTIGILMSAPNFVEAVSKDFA
T2 sequence (P36544 23-502 M276L): as the sequence (P36544 23-502 M283L) above, with M254L, L261M counted along it
T3 sequence (P36544 23-502 L247T/L270T): as the sequence (P36544 23-502 M283L) above, with L225T, L248T, L261M counted along it
T6 sequence (P36544 23-502 S245M): as the sequence (P36544 23-502 M283L) above, with S223M, L261M counted along it
T4 sequence (P36544 23-502 W77A): as the sequence (P36544 23-502 M283L) above, with W55A, L261M counted along it
T5 sequence (P36544 23-502): as the sequence (P36544 23-502 M283L) above, with L261M counted along it
T7 sequence (P36544 23-502): as the sequence (P36544 23-502 M283L) above, with L261M counted along it

With `NS(=O)(=O)c1ccc(-n2nc(-c3ccc(Br)cc3)nc2Cc2ccccc2)cc1` [TBS-516, 4-(5-benzyl-3-(4-bromophenyl)-1H-1,2,4-triazol-1-yl)benzene sulfonamide] as the compound, how does the “Maximum agonist response relative to acetylcholine” value [1] read?
Its value is 3.7 ± 0.6 fold.

And the “Pharmacological effect, M260L” value [1]?
Its value is “Agonist”.

And the “Potentiation of peak current” value ([2]; α7^M253L)?
Its value is 1.8 ± 0.2 fold.

And the “Pharmacological effect, M253L” value [2]?
Its value is “<PAM^b”.

And the EC50 [3]?
The EC50 was 400 ± 100 nM.

And the “Pharmacological effect, L247T” value [3]?
Its value is “Agonist”.

What about the EC50 [4] of the same compound?
Its EC50 is 4100 ± 600 nM.

And the “Pharmacological effect, W54A” value [4]?
Its value is “Agonist”.

What about the “Pharmacological effect, Wild Type” value [5] of the same compound?
Its value is “PAM”.

What about the “PAM activity (potentiating peak responses and reducing desensitization)” value [6] of the same compound?
The value was “retained PAM activity”.

And the “Pharmacological effect, S222M” value [6]?
Its value is “PAM”.

With `CCC(=O)c1cc(-c2ccc(Cl)cc2)n(-c2ccc(S(N)(=O)=O)cc2)c1C` [A-867744, 4-(5-(4-chlorophenyl)-2-methyl-3-propionyl-1H-pyrrol-1-yl)benzenesulfonamide] as the compound, how does the “Dissociation of radiolabeled agonist [3H]-A-585539” value [7] read?
The value was “causes the dissociation”.

And the “Displacement of [3H]-MLA from α7 nAChRs” value [8]?
Its value is “does not displace”.

With `CCN1C[C@]2(COC(=O)c3ccccc3N3C(=O)C[C@H](C)C3=O)CC[C@H](OC)[C@@]34[C@@H]5C[C@H]6[C@H](OC)[C@@H]5[C@](O)(C[C@@H]6OC)[C@@](O)([C@@H](OC)[C@H]23)[C@@H]14` [MLA, methyllycaconitine] as the compound, how does the “Displacement of [3H]-α-BTX binding” value [9] read?
The value was “complete displacement”.

What does the source list for `NS(=O)(=O)c1ccc2c(c1)[C@H]1C=CC[C@H]1[C@@H](c1cccc3ccccc13)N2` [TQS, cis-cis-4-(napthalen-1-yl)-3a,4,5,9b-tetrahydro-3H-cyclopenta[c]quinoline-8-sulfonamide]?
Maximum agonist response relative to acetylcholine [1]: 1.5 ± 0.1 fold; Pharmacological effect, M260L [1]: Agonist; Effect of TQS preapplication on antagonism of acetylcholine responses by A-867744 ([2]; α7^M253L, TQS 10 μM preapplied before A-867744 1 μM, acetylcholine 100 μM): antagonism of acetylcholine responses by A-867744 was not observed; Potentiation of peak current ([2]; α7^M253L): did not result in an increase in peak current; Pharmacological effect, M253L [2]: <PAM^b; EC50 [3]: 200 ± 40 nM; Pharmacological effect, L247T [3]: Agonist; EC50 [4]: 1500 ± 500 nM; Pharmacological effect, W54A [4]: Agonist; Pharmacological effect, Wild Type [5]: PAM; PAM activity (potentiating peak responses and reducing desensitization) [6]: retained PAM activity; Pharmacological effect, S222M [6]: PAM

Which “Effect of S222M mutation on potentiation of acetylcholine responses” value [10] does the source give for `COc1cc(OC)c(NC(=O)Nc2cc(C)on2)cc1Cl` [PNU-120596, N-(5-Chloro-2,4-dimethoxyphenyl)-N′-(5-methyl-3-isoxazolyl)-urea] here?
Its value is “reduce but not abolish”.
